In assay [1] the target is purified recombinant human HER2 protein (Homo sapiens (Human), UniProt P04626). The assay can be described thus: Measurement of inhibitory effect on HER2-phosphorylating activity (in vitro). The settings on record: ATP 6 μM, 25° C., 40 minutes. It is filed as biochemical. An excerpt: The purified recombinant human HER2 protein used in the test was purchased from Carna Biosciences, Inc.
For the inhibitory activity measurement of each compound, the synthesis example compound was first serially diluted with dimethyl sulfoxide (DMSO).

The subject of assay [2] is HER2-overexpressing human stomach cancer cell line NCI-N87 cells. Nature of the assay: Cytostatic activity against HER2-expressing cell line (NCI-N87), CellTiter-Glo. The class given is cell-based. Conditions: 3-day culture, read-out: NCI-N87 cell growth inhibitory activity IC50 value. An excerpt:
(§1) HER2-overexpressing human stomach cancer cell line NCI-N87 cells were suspended in RPMI1640 medium (manufactured by Life Technologies Corp.) containing 10% fetal bovine serum. Meanwhile, EGFR-overexpressing highly activated human epithelioid cancer cell line A431 cells were suspended in DMEM, high glucose medium (manufactured by Life Technologies Corp.) containing 10% fetal bovine serum. Subsequently, each cell suspension was inoculated to each well of a 384-well flat-bottom microplate and cultured at 37° C. for 1 day in an incubator containing 5% carbon dioxide. The synthesis example compound was dissolved in DMSO, and the test compound was diluted into a concentration of 500 times the final concentration using DMSO. The solution of the test compound in DMSO was diluted with the medium used in the suspension of each cell line, and this solution was added at a final concentration of DMSO of 0.2% to each well of the cell culture plate, followed by further culture at 37° C. for 3 days in an incubator containing 5% carbon dioxide.
On the technique in general: In ATP-based viability assays light output follows the ATP content of the culture.

Assay [3] deals with EGFR-overexpressing highly activated human epithelioid cancer cell line A431 cells. Nature of the assay: Cytostatic activity against EGFR-expressing cell line (A431), CellTiter-Glo. The class given is cell-based. Conditions: 3-day culture, read-out: A431 cell growth inhibitory activity IC50 value.
Excerpt: as §1
Rate of growth inhibition (%)=(C−T)/(C)×100 T: Luminescence intensity of a well supplemented with the test compound C: Luminescence intensity of a well not supplemented with the test compound

Where two headings read alike, the source gives them in different places.

Broadly, the IC50 is the concentration that inhibits the measured activity by half. Regarding `C=CC(=O)N1CCC[C@@H](n2nc(C(=O)Nc3ccc(CC(=O)N(C)C)cc3CC)c3c(N)ncnc32)C1` [compound 49], in assay [1], the IC50 turned out to be 20 nM.
Consider `C=CC(=O)N1CC[C@@H](n2nc(C(=O)Nc3ccc(OC(=O)N(C)C)cc3C)c3c(N)ncnc32)C1` [compound 63], for which the IC50 stood at 11 nM in assay [2] and 1670 nM in assay [3].
As to `C=CC(=O)N1CCC[C@@H](n2nc(C(=O)Nc3ccc(CC(=O)N(C)C)cc3C=C)c3c(N)ncnc32)C1` [compound 48], the IC50 in assay [2] was 4 nM; in assay [3] it was 314 nM; in assay [1], 8.5 nM.
On to `C=CC(=O)N1CCC[C@@H](n2nc(C(=O)Nc3cccc4c(CC(=O)N(C)C)ccnc34)c3c(N)ncnc32)C1` [compound 41], for which the IC50 in assay [1] amounted to 18 nM.
On the same count and under the same terms, the result for `C=CC(=O)N1CCC[C@@H](n2nc(C(=O)Nc3ccc(CC(=O)N(C)C)cc3-c3ccoc3)c3c(N)ncnc32)C1` [compound 52] reads 13 nM.
Still for that read-out and setting: the result for `C=CC(=O)N1CCC[C@@H](n2nc(C(=O)Nc3ccc(CC(=O)N(C)C)c(OC)c3)c3c(N)ncnc32)C1` [compound 40] reads 23 nM.
As for `C=CC(=O)N1CCC[C@@H](n2nc(C(=O)Nc3ccc(NC(=O)N(C)C)cc3C)c3c(N)ncnc32)C1` [compound 74, (R)-1-(1-acryloylpiperidin-3-yl)-4-amino-N-(4-(3,3-dimethylureido)-2-methylphenyl)-1H-pyrazolo[3,4-d]pyrimidine-3-carboxamide], the IC50 in assay [2] (Homo sapiens, NCI-N87, 72 h) came to 18 nM; in assay [3] (Homo sapiens, A-431, 72 h), 8080 nM.
For `C=CC(=O)N1CCC[C@@H](n2nc(C(=O)Nc3ccc(CC(=O)N4CCCC4)cc3C)c3c(N)ncnc32)C1` [compound 71, (R)-1-(1-acryloylpiperidin-3-yl)-4-amino-N-(2-methyl-4-(2-oxo-2-(pyrrolidin-1-yl)ethyl)phenyl)-1H-pyrazolo[3,4-d]pyrimidine-3-carboxamide], in that order: 26 nM and 2120 nM.
Regarding `C=CC(=O)N1C[C@H](n2nc(C(=O)Nc3ccc(CC(=O)N(C)C)cc3Cl)c3c(N)ncnc32)C[C@@H]1C` [compound 78], in assay [3], the IC50 amounted to 5450 nM.
Consider `C=CC(=O)N1CC[C@@H](n2nc(C(=O)Nc3ccc(CC(=O)N(C)C)c(F)c3Cl)c3c(N)ncnc32)C1` [compound 65], for which, in assay [1], the IC50 was found to be 20 nM.
As to `C=CC(=O)N1CCC[C@@H](n2nc(C(=O)Nc3ccc(CC(=O)N(C)C)cc3C#N)c3c(N)ncnc32)C1` [compound 23], the IC50 in assay [1] was determined as 20 nM.
Consider `C=CC(=O)N1CC[C@@H](n2nc(C(=O)Nc3ccc(OC(=O)N(C)C)c4ccccc34)c3c(N)ncnc32)C1` [compound 58], for which the IC50 in assay [3] worked out at 681 nM.
On to `C=CC(=O)N1CCC[C@@H](n2nc(C(=O)Nc3ccc(OC(=O)N(C)C)c(F)c3F)c3c(N)ncnc32)C1` [compound 35], for which the results for the IC50 in assay [2], in assay [3] and in assay [1] were 8 nM, 2610 nM and 16 nM, respectively.
`C=CC(=O)N1CC[C@@H](n2nc(C(=O)Nc3ccc(CC(=O)N(C)C)cc3Cl)c3c(N)ncnc32)C1` [compound 54]: the IC50 in assay [1] worked out at 31 nM.
Same read-out and setting: the result for `C=CC(=O)N1CCC[C@@H](n2nc(C(=O)Nc3ccc(CC(=O)N(C)C)cc3C3CC3)c3c(N)ncnc32)C1` [compound 22] reads 48 nM; that for `C=CC(=O)N1CCC[C@@H](n2nc(C(=O)Nc3cc(Cl)c(CC(=O)N(C)C)cc3Cl)c3c(N)ncnc32)C1` [compound 20], 13 nM.
On to `C=CC(=O)N1CCC[C@@H](n2nc(C(=O)Nc3ccc(CC(=O)N(C)C)c(Cl)c3)c3c(N)ncnc32)C1` [compound 8], for which the IC50 stood at 8 nM in assay [2], 955 nM in assay [3] and 9.2 nM in assay [1].
Take `C=CC(=O)N1CCC[C@@H](n2nc(C(=O)Nc3ccc(CC(=O)N(C)C)cc3)c3c(N)ncnc32)C1` [compound 28]: the IC50 in assay [1] turned out to be 46 nM.
For the molecule `C=CC(=O)N1CCC[C@@H](n2nc(C(=O)Nc3ccc(OC(=O)N(C)C)c(F)c3)c3c(N)ncnc32)C1` [compound 34], the results for the IC50 in assay [2] and in assay [3] were 32 nM and 2210 nM, respectively.
For “(R)-4-(1-(1-acryloylpyrimidin-3-yl)-4-amino-1H-pyrazolo[3,4-d]pyrimidine-3-carboxamido)-3-methylphenyl pyrrolidine-1-carboxylate [compound 69]”, the IC50 in assay [1] was found to be 9.2 nM.
`C=CC(=O)N1CC[C@@H](n2nc(C(=O)Nc3ccc(CC(=O)N(C)C)cc3C=C)c3c(N)ncnc32)C1` [compound 60]: the IC50 in assay [3] was 5260 nM; in assay [1] it was 20 nM.
For “(R)-4-(1-(1-acryloylpyrimidin-3-yl)-4-amino-1H-pyrazolo[3,4-d]pyrimidine-3-carboxamido)-3-methylphenyl piperidine-1-carboxylate [compound 70]”, the IC50 in assay [1] was determined as 10 nM.
In the case of `C=CC(=O)N1CCC[C@@H](n2nc(C(=O)Nc3ccc(OC(=O)N(C)C)c4ccccc34)c3c(N)ncnc32)C1` [compound 33], the IC50 in assay [3] is 263 nM.
For “(R)-4-(1-(1-acryloylpyrimidin-3-yl)-4-amino-1H-pyrazolo[3,4-d]pyrimidine-3-carboxamido)-3-methylphenyl methyl(phenyl) carbamate [compound 68]”, the IC50 in assay [1] turned out to be 7.7 nM.
As to `C=CC(=O)N1CCC[C@@H](n2nc(C(=O)Nc3ccc(CC(=O)N(C)C)c(F)c3Cl)c3c(N)ncnc32)C1` [compound 50], the IC50 in assay [2] came out at 4 nM; in assay [3], 277 nM; in assay [1], 2.9 nM.
Take `C=CC(=O)N1CCC[C@@H](n2nc(C(=O)Nc3ccc(CC(=O)N(C)C)cc3-c3ccco3)c3c(N)ncnc32)C1` [compound 51]: the IC50 in assay [1] amounted to 17 nM.
Consider `C=CC(=O)N1CC[C@@H](n2nc(C(=O)Nc3ccc(CC(=O)N(C)C)cc3Br)c3c(N)ncnc32)C1` [compound 62], for which the IC50 in assay [1] stood at 59 nM.
The same measure, in the same setting: the result for `C=CC(=O)N1CC[C@@H](n2nc(C(=O)Nc3cc(Cl)c(CC(=O)N(C)C)cc3C)c3c(N)ncnc32)C1` [compound 67] reads 72 nM; that for `C=CC(=O)N1CCC[C@@H](n2nc(C(=O)Nc3cc(C#N)c(CC(=O)N(C)C)cc3C)c3c(N)ncnc32)C1` [compound 24], 38 nM; that for `C=CC(=O)N1CCC[C@@H](n2nc(C(=O)Nc3ccc(CC(=O)N(C)C)c(F)c3)c3c(N)ncnc32)C1` [compound 42], 18 nM.
Regarding `C=CC(=O)N1CC[C@@H](n2nc(C(=O)Nc3ccc(CC(=O)N(C)C)c(C)c3C)c3c(N)ncnc32)C1` [compound 59], in assay [1], the IC50 was determined as 45 nM.
On to `C=CC(=O)N1CC[C@@H](n2nc(C(=O)Nc3ccc(CC(=O)N(C)C)c(F)c3OC)c3c(N)ncnc32)C1` [compound 57], for which the figures for the IC50 in assay [2], in assay [3] and in assay [1] were 44 nM, 3390 nM and 31 nM, respectively.
Consider `C=CC(=O)N1CCC[C@@H](n2nc(C(=O)Nc3ccc(CC(=O)N(C)C)cc3N(C)C)c3c(N)ncnc32)C1` [compound 47], for which the IC50 in assay [1] is 52 nM.
For the molecule `C=CC(=O)N1CC[C@@H](n2nc(C(=O)Nc3ccc(CC(=O)N(C)C)c(Cl)c3OC)c3c(N)ncnc32)C1` [compound 55], the IC50 in assay [1] was 49 nM.
On the same count and under the same terms, the result for `C=CC(=O)N1CCCC(n2nc(Nc3ccc(C(=O)N(C)C)cc3)c3c(N)ncnc32)C1` (stereo not drawn) [compound 21] reads 26 nM.
For `C=CC(=O)N1CC[C@@H](n2nc(C(=O)Nc3ccc(CC(=O)N(C)C)c(F)c3C)c3c(N)ncnc32)C1` [compound 56], the IC50 is 31 nM in assay [2], 2610 nM in assay [3] and 22 nM in assay [1].
For `C=CC(=O)N1CC[C@@H](n2nc(C(=O)Nc3ccc(CC(=O)N(C)C)c4ccccc34)c3c(N)ncnc32)C1` [compound 61], the figures for the IC50 in assay [3] and in assay [1] were 1100 nM and 13 nM, respectively.
Regarding `C=CC(=O)N1CCC[C@@H](n2nc(C(=O)Nc3ccc(CC(=O)N(C)C)c(F)c3C)c3c(N)ncnc32)C1` [compound 12], the IC50 turned out to be 3 nM in assay [2], 340 nM in assay [3] and 7.5 nM in assay [1].
On the same counts, the results for `C=CC(=O)N1CCC[C@@H](n2nc(C(=O)Nc3cc(F)c(CC(=O)N(C)C)cc3Cl)c3c(N)ncnc32)C1` [compound 18] are 12 nM, 1060 nM and 4.4 nM.
`C=CC(=O)N1C[C@H](n2nc(C(=O)Nc3ccc(CC(=O)N(C)C)c(C)c3C)c3c(N)ncnc32)C[C@@H]1C` [compound 79]: the IC50 in assay [3] is 6940 nM; in assay [1] it was 17 nM.
Regarding `C=CC(=O)N1CCC[C@@H](n2nc(C(=O)Nc3cc(Cl)c(CC(=O)N(C)C)cc3OC)c3c(N)ncnc32)C1` [compound 9], the results for the IC50 in assay [2], in assay [3] and in assay [1] were 13 nM, 2450 nM and 10 nM, respectively.

These data come from patent US11696917B2, “Agent enhancing antitumor effect using pyrazolo[3,4-d]pyrimidine compound” (TAIHO PHARMACEUTICAL CO., LTD., priority 2017, dated 2023).
